Reference: patent US7060725B2, “Substituted sulfamate anticonvulsant derivatives” (Janssen Pharmaceutica N.V., priority 2002, dated 2006)

Tests used:
[1] = tested on: maximal electroshock seizure (MES-induced seizure spread); test: Maximal electroshock seizure (MES) test, mouse; type: in vivo, mice
Protocol: Anticonvulsant activity was determined using the standard MES model for generalized tonic-clonic seizures (Swinyard E A, Woodhead J H, White H S, Franklin M R, In: Levy R H, Mattson R H, Meldrum B S, Penry J K, Dreifuss F E eds. Antiepileptic drugs. New York: Raven Press, 1989:85–102).
An electric stimulus of 0.2 sec duration, 60 Hz, 50 mA in mice, 150 mA in rats, was delivered via corneal electrodes primed with an electrolyte solution containing an anesthetic agent (0.5% tetracaine hydrochloride in 0.9% saline).
Mice or rats were randomly selected into control and test groups. The animals were dosed with vehicle or test compound, at varying concentrations. […] Rats were subjected to electrical stimulus at time intervals between 15 minutes and 4 hours following administration of test compound. Abolition of the hind limb tonic extensor component was an indication of the test compound's ability to inhibit MES-induced seizure spread.
The ED50 (the calculated dose required to block the hindlimb tonic-extensor component of the maximal electroshock seizure in 50% of the animals tested) was calculated. A probit analysis (Finney D J. Probit Analysis. Cambridge, England: Cambridge University Press, 1971) was used to calculate the ED50.
Following the mouse procedure described above, representative compounds of the instant invention were tested for biological activity in the mouse, with results as listed in Table 5. Mouse activity is listed as number of mice active/total number of mice tested @ time after administration of the test compound.

[2] = tested on: maximal electroshock seizure (MES-induced seizure spread); test: Maximal electroshock seizure (MES) test, rat; type: in vivo, rats; conditions: for Rat Activity (oral) (number of rats active/total number of rats tested): 30 mg/kg
Protocol: Anticonvulsant activity was determined using the standard MES model for generalized tonic-clonic seizures (Swinyard E A, Woodhead J H, White H S, Franklin M R, In: […], Meldrum […], Dreifuss F E eds. Antiepileptic drugs. New York: Raven Press, 1989:85-102). An electric stimulus of 0.2 sec duration, 60 Hz, 50 mA in mice, 150 mA in rats, was delivered via corneal electrodes primed with an electrolyte solution containing an anesthetic agent (0.5% tetracaine hydrochloride in 0.9% saline). Mice or rats were randomly selected into control and test groups. The animals were dosed with vehicle or test compound, at varying concentrations. Mice were subjected to the electrical stimulus at 30 minutes and 4 hours following administration of test compound. […] Abolition of the hind limb tonic extensor component was an indication of the test compound's ability to inhibit MES-induced seizure spread. […] A probit analysis (Finney D J. Probit Analysis. Cambridge, England: Cambridge University Press, 1971) was used to calculate the ED50. Following the rat procedure described above, representative compounds of the instant invention were tested for biological activity in the rat, with results as listed in Table 6 and 7. Rat activity is listed as number of rats active/total number of rats tested @ time after administration of the test compound.

[3] = tested on: simple and complex partial seizure and secondarily generalized seizures; conditions: cited from earlier work
[4] = 100 mg/kg, @ 0.5 hrs after administration

CC1(C)OC2[C@@H](CO[C@@]3(COS(=O)(=O)NS(=O)(=O)C(F)(F)F)OC(C)(C)O[C@@H]23)O1 (stereo partly drawn) [Compound 30, N-trifluoromethylsulfonyl-2,3:4,5-bis-O-(1-methylethylidene)-β-D-fructopyranose sulfamate]
Mouse Activity (number of mice active/total number of mice tested) [1, 4]: 2/3 @ 0.5 hrs
Mouse Activity (number of mice active/total number of mice tested) ([1]; 100 mg/kg, @ 4 hrs after administration): 3/3 @ 4 hrs
Mouse Activity (number of mice active/total number of mice tested) ([1]; 300 mg/kg, @ 0.5 hrs after administration): 1/1 @ 0.5 hrs
Mouse Activity (number of mice active/total number of mice tested) ([1]; 300 mg/kg, @ 4 hrs after administration): 1/1 @ 4 hrs
Mouse Activity ([1]; dosage 30 mg/kg): No activity
ED50 ([2]; @ 4 hrs): 2.38 @ 4 hrs m/k
Rat Activity (oral) (number of rats active/total number of rats tested) ([2]; @ 0.25 hrs): 3/4 @ 0.25 hrs
Rat Activity (oral) (number of rats active/total number of rats tested) ([2]; @ 0.5 hrs): 4/4 @ 0.5 hrs
Rat Activity (oral) (number of rats active/total number of rats tested) ([2]; @ 1 hr): 3/4 @ 1 hr
Rat Activity (oral) (number of rats active/total number of rats tested) ([2]; @ 2 hrs): 4/4 @ 2 hrs
Rat Activity (oral) (number of rats active/total number of rats tested) ([2]; @ 4 hrs): 4/4 @ 4 hrs

CC1(C)OC2COC3(COS(=O)(=O)NC(c4ccccc4)c4ccccc4)OC(C)(C)OC3C2O1 (stereo not shown) [Compound 37]
Mouse Activity (number of mice active/total number of mice tested) [1, 4]: 0/3 @ ½ hr,
Mouse Activity (number of mice active/total number of mice tested) ([1]; 100 mg/kg, @ 1 hr after administration): 0/3 @ ½ hr,
Mouse Activity (number of mice active/total number of mice tested) ([1]; 100 mg/kg, @ 2 hrs after administration): 1/3 @ ¼ hrs,
Mouse Activity (number of mice active/total number of mice tested) ([1]; 100 mg/kg, @ 6 hrs after administration): 1/3 @ ¼ hrs,
Mouse Activity (number of mice active/total number of mice tested) ([1]; 100 mg/kg, @ ¼ hrs after administration): 1/3 @ ¼ hrs,
Mouse Activity ([1]; dosage 30 mg/kg): No Activity
Mouse Activity ([1]; dosage 300 mg/kg): No activity
Rat Activity (oral) (number of rats active/total number of rats tested) ([2]; @ 1 hr): 1/4 @ 1 hr
Rat Activity (oral) (number of rats active/total number of rats tested) ([2]; @ 2 hrs): 2/4 @ 2 hrs
Rat Activity (oral) (number of rats active/total number of rats tested) ([2]; @ 4 hrs): 1/4 @ 4 hrs

CC(C)Oc1ccccc1N1CCN(S(=O)(=O)OCC23OCC4OC(C)(C)OC4C2OC(C)(C)O3)CC1 (stereo not shown) [Compound 39]
Mouse Activity ([1]; dosage 30, 100, 300 mg/kg): No activity
Rat Activity (oral) (number of rats active/total number of rats tested) ([2]; @ 4 hrs): 1/4 @ 4 hrs

CC1(C)O[C@@H]2[C@@H](CO[C@@]3(COS(N)(=O)=O)OC(C)(C)O[C@@H]23)O1 [TPM, 2,3:4,5-bis-O-(1-methylethylidene)-β-D-fructopyranose sulfamate, reference compound]
ED50 ([1]; @ 2 hrs): ED50 = 33 m/k
efficacy in clinical trials of human epilepsy [3]: effective as adjunctive therapy or as monotherapy
